Measured values as given in US7932272B2, “Antifungal agent containing heterocyclic compound” (Eisai R&D Management Co., Ltd., priority 2003, dated 2011).
In brackets after ≈: the same amount, converted by molar mass.

Legend:
[1] = test system: C. albicans E81022 strain; test: Anti-Candida activity (MIC measurement); assay type: cell-based; conditions: E81022STRAIN, MIC by visual inspection, C. albicans E81022, 48 hours at 30 to 35° C.
Experimental: (§1) For the C. albicans E81022 strain, a fungal suspension from a standing culture for 48 hours at 30° C. in a Sabouraud dextrose liquid culture medium (SDB) was diluted 10,000-fold with a 1.3-fold concentrated SDB to adjust to a fungal suspension of 1 to 2×10^4 cells/ml. For the A. fumigatus Tsukuba strain, −80° C. stored strain was diluted 1,000-fold with a 1.3-fold concentrated SDB to adjust to a fungal suspension of 2 to 3×10^3 cells/ml.
(§2) Using a U-bottomed 96 well plate, 8 samples/plate (A to H) of sample dilution solutions were prepared. On the 3rd row of each plate was dispensed 240 μl of sterilized and distilled water, and on the 2nd and 4th to 12th rows were dispensed 125 μl of 4% dimethylsulfoxide solution. Weighed sample was dissolved in dimethylsulfoxide to prepare a 2.5 to 20 mg/ml solution, 10 μl of this solution was then added to the 3rd row of the prepared plate, and 10 steps of two-fold step dilutions (125 μl of solution+125 μl of 4% dimethylsulfoxide) were performed on the plate.
(§3) The fungal suspension preprared in (1) was used in the amount of 75 μl/well to inoculate a V-bottomed or flat-bottomed 96 well plate containing 25 μl/well of test compound dilution solution prepared in (2), and a standing culture was carried out aerobically for 48 hours at 30 to 35° C.

[2] = test system: A. fumigatus Tsukuba strain; test: Anti-Aspergillus activity (MIC measurement); assay type: cell-based; conditions: MIC by visual inspection, 48 hours at 30 to 35° C.
Experimental: as §1, §2, §3

Structure (SMILES) | MIC [1] [µg/mL] | MIC [2] [µg/mL]
Nc1ncccc1C(=O)NCc1ccc(Cc2ccccc2)o1 [Example A-5, 2-Amino-N-(5-benzyl-furan-2-ylmethyl)-nicotinamide] | 0.2 (≈ 0.651 µM) | 0.78 (≈ 2.54 µM)
Nc1ncccc1C(=O)NCc1ccc(CCNc2ccccc2)o1 [Example A-8, 2-Amino-N-(5-(2-phenylamino-ethyl)-furan-2-ylmethyl)-nicotinamide] | 3.13 (≈ 9.3 µM) | 6.25 (≈ 18.6 µM)
Nc1ncccc1C(=S)NCc1ccc(OCc2ccccc2)cc1 [Example A-22, 2-Amino-N-(4-benzyloxy-benzyl)-thionicotinamide] | 0.78 (≈ 2.23 µM) | 3.13 (≈ 8.96 µM)
Cc1ccc(C(=O)NCc2ccc(OCc3ccccc3)cc2)c(N)n1 [Example A-37, 2-Amino-N-(4-benzyloxy-benzyl)-6-methyl-nicotinamide] | 0.39 (≈ 1.12 µM) | 3.13 (≈ 9.01 µM)
Nc1ccc(C(=O)NCc2ccc(OCc3ccccc3)cc2)cn1 [Example A-39, 6-Amino-N-(4-benzyloxybenzyl)-nicotinamide] | 1.56 (≈ 4.68 µM) | 1.56 (≈ 4.68 µM)
Nc1nc(NCCCn2nccn2)ccc1C(=O)NCc1ccc(Oc2ccccc2)s1 [Example A-81, 2-Amino-N-(5-phenoxy-thiophen-2-ylmethyl)-6-(3-[1,2,3]-triazol-2-yl-propylamino)-nicotinamide] | 3.13 (≈ 6.96 µM) | 6.25 (≈ 13.9 µM)
Nc1nc(NCc2ccco2)ccc1C(=O)NCc1ccc(Oc2ccccc2)s1 [Example A-82, 2-Amino-6-(furfurylamino)-N-(5-phenoxy-thiophen-2-ylmethyl)-nicotinamide] | 0.2 (≈ 0.476 µM) | 1.56 (≈ 3.71 µM)
Nc1ccc(NCCNc2ccc(C(=O)NCc3ccc(Oc4ccccc4)s3)c(N)n2)cc1 [Example A-92, 2-Amino(2-(4-amino-phenylamine)-ethylamino)-N-(5-phenoxy-thiophen-2-ylmethyl)-nicotinamide] | 3.13 (≈ 6.6 µM) | 
CC(=O)c1ccc(C(=O)NCc2ccc(Oc3ccccc3)s2)c(N)n1 [Example A-98, 6-Acetyl-2-amino-N-(5-phenoxy-thiophen-2-ylmethyl)-nicotinamide] | 0.39 (≈ 1.06 µM) | 1.56 (≈ 4.25 µM)
Nc1nc(NCC(=O)O)ccc1C(=O)NCc1ccc(Oc2ccccc2)s1 [Example A-99, (6-Amino-5-((5-phenoxy-thiophen-2-ylmethyl)-carbamoyl)-pyridin-2-ylamino)-acetic acid] | 3.13 (≈ 7.86 µM) | 6.25 (≈ 15.7 µM)
Nc1nc(Cl)ccc1C(=O)NCc1ccc(Oc2ccccc2)s1 [Example A-101, 2-Amino-6-chloro-N-(5-phenoxy-thiophen-2-ylmethyl)-nicotinamide] | 0.1 (≈ 0.278 µM) | 0.39 (≈ 1.08 µM)
Nc1nc(OCCO)ccc1C(=O)NCc1ccc(Oc2ccccc2)s1 [Example A-112, 2-Amino-6-(2-hydroxyethoxy)-N-(5-phenoxy-thiophen-2-ylmethyl)-nicotinamide] | 3.13 (≈ 8.12 µM) | 6.25 (≈ 16.2 µM)
COc1ccc(C(=O)NCc2ccc(Oc3ccccc3)s2)c(N)n1 [Example A-116, 2-Amino-6-methoxy-N-(5-phenoxy-thiophen-2-ylmethyl)-nicotinamide] | 0.39 (≈ 1.1 µM) | 3.13 (≈ 8.81 µM)
COCCCc1ccc(C(=O)NCc2ccc(Oc3ccccc3)s2)c(N)n1 [Example A-124, 2-Amino-6-(3-methoxy-propyl)-N-(5-phenoxy-thiophen-2-ylmethyl)-nicotinamide] | 1.56 (≈ 3.92 µM) | 
Nc1nc(NCc2ccccc2)ccc1C(=O)NCc1ccc(Oc2ccccc2)s1 [Example A-126, 2-Amino-6-benzylamino-N-(5-phenoxy-thiophen-2-ylmethyl)-nicotinamide] | 0.78 (≈ 1.81 µM) | 6.25 (≈ 14.5 µM)
O=C(O)CCNc1ncccc1C(=O)NCc1ccc(Oc2ccccc2)s1 [Example A-131] | 1.56 (≈ 3.92 µM) | 6.25 (≈ 15.7 µM)
CNc1ncccc1C(=O)NCc1ccc(Oc2ccccc2)s1 [Example A-136, 2-Methylamino-N-(5-phenoxy-thiophen-2-ylmethyl)-nicotinamide] | 1.56 (≈ 4.6 µM) | 
Nc1ccc(C(=O)NCc2ccc(Oc3ccc(F)cc3)s2)cn1 [Example A-139, 6-Amino-N-(5-(4fluoro-phenoxy)-thiophen-2-ylmethyl)-nicotinamide] | 1.56 (≈ 4.54 µM) | 1.56 (≈ 4.54 µM)
Cc1sc(CNC(=O)c2cccnc2N)cc1Oc1ccccc1 [Example A-170, 2-Amino-N-(5-methyl-4-phenoxy-thiophen-2-ylmethyl)-nicotinamide] | 0.78 (≈ 2.3 µM) | 
Nc1ncccc1C(=O)NCc1cc(Cl)c(Oc2ccccc2)s1 [Example A-171, 2-Amino-N-(4-chloro-5-phenoxy-thiophen-2-ylmethyl)-nicotinamide] | 0.2 (≈ 0.556 µM) | 1.56 (≈ 4.34 µM)
Nc1ncncc1C(=O)NCc1ccc(Oc2ccccc2)s1 [Example B-1, 4-Amino-pyrimidine-5-carboxylic acid (5-phenoxy-thiophen-2-ylmethyl)-amide] | 3.13 (≈ 9.59 µM) | 6.25 (≈ 19.1 µM)

Structure (SMILES) | MIC [1] [µg/mL] | MIC [2] [µg/mL]
Nc1nc2c(cc1C(=O)NCc1ccc(Oc3ccccc3)s1)CCC2 [Example C-1] | 0.1 (≈ 0.274 µM) | 
O=C(NCc1ccc(OCc2ccccc2)cc1)c1ccc2ncccc2n1 [Example D-2, [1.5]Naphthylidine-2-carboxylic acid 4-benzyloxybenzylamide] | 0.78 (≈ 2.11 µM) | 0.78 (≈ 2.11 µM)
O=C(NCc1ccc(OCc2ccccc2)cc1)c1ccc2ncccc2c1 [Example E-8, quinoline-6-carboxylic acid 4-benzyloxybenzylamide] | 0.2 (≈ 0.543 µM) | 0.2 (≈ 0.543 µM)
O=C(NCc1cccc(Oc2ccccc2)c1)c1ccc2ncccc2c1 [Example E-11, Quinoline-6-carboxylic acid 3-phenoxybenzylamide] | 0.39 (≈ 1.1 µM) | 1.56 (≈ 4.4 µM)
O=C(NCc1cccc(-c2ccccc2)c1)c1ccc2ncccc2c1 [Example E-13, Quinoline-6-carboxylic acid (biphenyl-3-ylmethyl)-amide] | 0.78 (≈ 2.3 µM) | 1.56 (≈ 4.61 µM)
O=C(Cc1cccc(Oc2ccccc2)c1)Nc1ccc2ncccc2c1 [Example E-19, 2-(3-Phenoxy-phenyl)-N-quinolin-6-yl-acetamide] | 0.78 (≈ 2.2 µM) | 1.56 (≈ 4.4 µM)
O=C(NCc1ccc(Nc2ccccc2)cc1)c1ccc2ncccc2c1 [Example E-25, Quinoline-6-carboxylic acid 4-phenylamino-benzylamide] | 1.56 (≈ 4.41 µM) | 
O=C(NCc1cccc(OCC2CC2)c1)c1ccc2ncccc2c1 [Example E-43, Quinoline-6-carboxylic acid 3-cyclopropylmethoxy-benzylamide] | 0.39 (≈ 1.17 µM) | 
CO/N=C(\NCc1ccc(OCc2ccccc2)cc1)c1ccc2ncccc2c1 [Example E-44, N-(4-Benzyloxy-benzyl)-N′-methoxy-quinoline-6-carboxamidine] | 3.13 (≈ 7.87 µM) | 
N#C/N=C(\NCc1ccc(OCc2ccccc2)cc1)c1ccc2ncccc2c1 [Example E-45, N-(4-Benzyloxy-benzyl)-N′-cyano-quinoline-6-carboxamidine] | 3.13 (≈ 7.98 µM) | 3.13 (≈ 7.98 µM)
O=C(NCc1cccc(C=C2CCCC2)c1)c1ccc2ncccc2c1 [Example E-51, 6-Quinolinecarboxylic acid 3-cyclopentylydenemethylbenzylamide] | 0.78 (≈ 2.28 µM) | 3.13 (≈ 9.14 µM)
O=C(NCc1ccc(OCc2ccccc2)cc1F)c1ccc2ncccc2c1 [Example E-53, Quinoline-6-carboxylic acid 4-benzyloxy-2-fluoro-benzalamide] | 1.56 (≈ 4.04 µM) | 3.13 (≈ 8.1 µM)
O=C(NCc1ccn(Cc2ccccc2)c1)c1ccc2ncccc2c1 [Example E-57, Quinoline-6-carboxylic acid (1-benzyl-1H-pyrrol-3-ylmethyl)-amide] | 0.2 (≈ 0.586 µM) | 6.25 (≈ 18.3 µM)
N#Cc1cccc(Oc2ccc(CNC(=O)c3ccc4ncccc4c3)s2)c1 [Example E-64, Quinoline-6-carboxylic acid (5-(3-cyano-phenoxy)-thiophen-2-ylmethyl)-amide] | 0.2 (≈ 0.519 µM) | 6.25 (≈ 16.2 µM)
O=C(NCc1ccc(Oc2ccc(F)cc2)s1)c1ccc2ncccc2c1 [Example E-67, Quinoline-6-carboxylic acid (5-(4-fluorophenoxy)thiophen-2-yl)methyl amide] | 0.39 (≈ 1.03 µM) | 0.78 (≈ 2.06 µM)
O=C(NCc1cc(Oc2cccc(F)c2)cs1)c1ccc2ncccc2c1 [Example E-69, Quinoline-6-carboxylic acid (4-(3-fluoro-phenoxy)-thiophen-2-ylmethyl)-amide] | 0.1 (≈ 0.264 µM) | 1.56 (≈ 4.12 µM)
O=C(NCc1ccc(Cc2cccc(Cl)c2)s1)c1ccc2ncccc2c1 [Example E-71, Quinoline-6-carboxylic acid (5-(3-chlorobenzyl)-thiophen-2-ylmethyl)-amide] | 0.2 (≈ 0.509 µM) | 1.56 (≈ 3.97 µM)
O=C(NCc1cccc(Oc2ccccc2)c1)c1ccc2nnccc2c1 [Example F-1, Cinnoline-6-carboxylic acid 3-phenoxy-benzylamide] | 3.13 (≈ 8.81 µM) | 
O=C(NCc1cccc(Oc2ccccc2)c1)c1ccc2cnccc2c1 [Example G-1, Isoquinoline-6-carboxylic acid 3-phenoxybenzylamide] | 6.25 (≈ 17.6 µM) | 
O=C(NCc1cccc(Oc2ccccc2)c1)c1ccc2[nH]ccc2c1 [Example V-1, 1H-Indole-5-carboxylic acid 3-phenoxybenzylamide] |  | 6.25 (≈ 18.3 µM)
